Results taken from PubChem BioAssay (NCI).
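Compound exposure: 48 hours, 5 concentrations, 96-well plates. GI50 marks 50% less growth. TGI marks complete inhibition of growth.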

How the values were obtained:
Experiment in all cases: inhibition of tumour cell growth, NCI panel, 48 h
[1] = test system: ACHN renal
[2] = test system: HCT-15 colon
[3] = test system: HS 578T breast
[4] = test system: LOX IMVI melanoma
[5] = test system: MCF7 breast
[6] = test system: NCI-H226 lung
[7] = test system: OVCAR-8 ovarian
[8] = test system: PC-3 prostate
[9] = test system: SR leukemia
[10] = test system: UO-31 renal

SMILES	TGI [1]	TGI [2]	GI50 [3]	TGI [3]	TGI [4]	TGI [5]	GI50 [6]	TGI [6]	GI50 [7]	TGI [7]	TGI [8]	TGI [9]	TGI [10]	GI50 [1]	GI50 [2]	GI50 [4]	GI50 [5]	GI50 [8]	GI50 [9]	GI50 [10]
COc1c2occc2cc2ccc(=O)oc12	> 100 µM	> 100 µM	> 100 µM	> 100 µM	> 100 µM	> 100 µM	> 100 µM	> 100 µM	> 100 µM	> 100 µM	> 100 µM	> 100 µM	> 100 µM	–	–	–	–	–	–	–
CCOC(=O)C1=C(C)N(C2OC(COC(C)=O)C(OC(C)=O)C(OC(C)=O)C2OC(C)=O)C(=O)NC1c1ccccc1 (centres undefined)	> 100 µM	> 100 µM	–	–	> 100 µM	–	–	> 100 µM	–	> 100 µM	–	> 100 µM	> 100 µM	–	–	–	–	–	–	–
C=CCOC1OC(CS(=O)(=O)O)C(OC(C)=O)C(OC(C)=O)C1OC(C)=O (centres undefined)	–	> 100 µM	–	> 100 µM	> 100 µM	> 100 µM	–	> 100 µM	–	> 100 µM	> 100 µM	> 100 µM	> 100 µM	–	–	–	–	–	–	–
CCCCCCCCCC[N+](C)(C)C	12.5 µM	17.1 µM	2.22 µM	6.38 µM	2.95 µM	12.7 µM	2.37 µM	8.97 µM	1.83 µM	5.53 µM	5.16 µM	3.43 µM	20 µM	2.39 µM	2.49 µM	1.41 µM	2.45 µM	0.978 µM	1.12 µM	4.91 µM
c1ccc(N2N=C3N(c4ccccc4)C2N3c2ccccc2)cc1	> 100 µM	> 100 µM	–	> 100 µM	62.4 µM	> 100 µM	–	–	–	> 100 µM	> 100 µM	–	> 100 µM	–	–	–	–	–	–	–
COc1ccc(OCC(C)(C)O)cc1	–	> 100 µM	–	–	> 100 µM	> 84.1 µM	–	> 100 µM	–	> 100 µM	–	–	> 100 µM	–	–	–	–	–	–	–
CC(=O)OCc1nnn2c1CCC2	> 100 µM	> 100 µM	–	–	> 100 µM	–	–	–	–	> 100 µM	–	> 100 µM	> 100 µM	–	–	–	–	–	–	–
CCCCn1c(C)c2c(c1C)C(=O)N(CCN1CCN(c3ccccc3Cl)CC1)C2=O	> 100 µM	> 100 µM	–	> 100 µM	30.1 µM	99 µM	–	> 100 µM	–	> 100 µM	79.5 µM	58.7 µM	43.3 µM	–	–	–	–	–	–	–
CCCCCCC(=O)c1ccc2ccccc2c1O	> 100 µM	> 100 µM	–	> 100 µM	> 100 µM	> 100 µM	–	> 100 µM	–	> 100 µM	> 100 µM	> 100 µM	> 100 µM	–	–	–	–	–	–	–
CCOC(=O)/C=C/c1c[nH]c(=O)[nH]c1=O	–	> 75 µM	–	–	> 75 µM	> 75 µM	–	> 75 µM	–	> 75 µM	–	–	> 75 µM	–	–	–	–	–	–	–
COc1ccc(-c2c3c(nc4[nH]c(=S)[nH]c(=S)c24)CCCC3)cc1OC	> 100 µM	> 100 µM	–	54.4 µM	45.3 µM	> 100 µM	–	–	–	74.6 µM	79 µM	> 100 µM	> 100 µM	–	–	–	–	–	–	–
